Assay [1] relates to picornavirus and norovirus M^pros (PV, HRV, EV71, NV). The assay is classed as biochemical, poliovirus, human rhinovirus, enterovirus A71. Conditions: cross-test against PV, EV71 and NV M^pro, 500 nM enzyme, Bis-Tris pH 7.6, 37 °C.
The target of another assay is EV71 M^pro (Human enterovirus 71, UniProt Q66478). It counts as biochemical, enterovirus A71 (EV71). The settings on record: 500 nM enzyme, substrate 6-850 μM; for catalytic efficiency (kcat/KM): Table 8.
The target of a further assay is HRV M^pro (Human rhinovirus 14, UniProt P03303). The assay is classed as biochemical. The settings on record: 500 nM enzyme, substrate 6-850 μM; for vmax: Fig. S29 Michaelis-Menten fit; for vmax / catalytic efficiency (kcat/KM): Bis-Tris pH 7.6, 37 °C; for Km: Table 7, 20 mM Bis-Tris pH 7.6, 1 mM DTT, 0.02% Tween-20, 37 °C, read 60 min; for catalytic efficiency (kcat/KM): Table 8.

In a further assay the target is NV M^pro (Norovirus, UniProt Q83883). The assay is classed as biochemical. Conditions: 500 nM enzyme, substrate 6-850 μM; for catalytic efficiency (kcat/KM): Table 8.
Another assay deals with Polio M^pro (Poliovirus type 1, UniProt P03300). Conditions: pH 7.6.
The subject of another assay is EqCoV M^pro. The assay is classed as biochemical, equine coronavirus (EqCoV). The settings on record: pH 7.6.
The test system of a further assay is PEDV M^pro. It counts as biochemical, porcine epidemic diarrhea virus (PEDV). Conditions: for K M / Km / vmax: pH 7.6.
Assay [2] has as its target T1, SARS-CoV-2 M^pro (Severe acute respiratory syndrome coronavirus 2, UniProt P0DTD1).
Assay [3] has as its system coronavirus M^pros (SARS-CoV-2, FIPV, PEDV, EqCoV). The assay is classed as biochemical.
Assay [4] deals with T1, SARS-CoV-2 M^pro. The settings on record: pH 7.6.
Another assay concerns the target FIPV M^pro (Feline coronavirus, UniProt Q98VG9). It counts as biochemical, feline infectious peritonitis virus (FIPV). Conditions: pH 7.6.
Assay [5] concerns coronaviral M^pros (SARS-CoV-2, FIPV, PEDV, EqCoV). It counts as biochemical.
[6] abbreviates: Fig. S31 Michaelis-Menten fit, Bis-Tris pH 7.6, 37 °C.
Setting [7] is: Table 7, 20 mM Bis-Tris pH 7.6, 1 mM DTT, 0.02% Tween-20, 37 °C, read 60 min.
Setting [8] is: Fig. S32 Michaelis-Menten fit, Bis-Tris pH 7.6, 37 °C.

Values joined by “and” are separate entries in the source; they are usually repeats but may differ in a detail not shown here. Equal entries are not always repeated. Where two headings read alike, the source gives them in different places.

Sequence of EV71 M^pro (Q66478 1549-1731 limits assumed): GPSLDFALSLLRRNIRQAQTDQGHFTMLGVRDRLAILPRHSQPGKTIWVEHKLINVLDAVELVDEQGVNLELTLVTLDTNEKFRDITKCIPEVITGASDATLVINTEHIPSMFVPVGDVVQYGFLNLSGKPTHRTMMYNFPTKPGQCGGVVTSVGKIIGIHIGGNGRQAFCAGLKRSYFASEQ
Sequence of NV M^pro (Q83883 1101-1281 limits assumed): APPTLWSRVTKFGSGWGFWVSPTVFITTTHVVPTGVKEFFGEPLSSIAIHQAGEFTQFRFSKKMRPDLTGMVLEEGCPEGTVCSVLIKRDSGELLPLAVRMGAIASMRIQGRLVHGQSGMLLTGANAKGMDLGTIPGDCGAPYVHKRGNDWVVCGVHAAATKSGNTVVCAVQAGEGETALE
Sequence of HRV M^pro (P03303 1538-1719 limits assumed): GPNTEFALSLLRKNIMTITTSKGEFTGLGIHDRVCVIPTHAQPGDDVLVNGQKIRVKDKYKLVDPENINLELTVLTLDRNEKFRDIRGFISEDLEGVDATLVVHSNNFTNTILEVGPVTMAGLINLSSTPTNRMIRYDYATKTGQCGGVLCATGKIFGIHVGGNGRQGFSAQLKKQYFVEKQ
Sequence of Polio M^pro (P03300 1566-1748 limits assumed): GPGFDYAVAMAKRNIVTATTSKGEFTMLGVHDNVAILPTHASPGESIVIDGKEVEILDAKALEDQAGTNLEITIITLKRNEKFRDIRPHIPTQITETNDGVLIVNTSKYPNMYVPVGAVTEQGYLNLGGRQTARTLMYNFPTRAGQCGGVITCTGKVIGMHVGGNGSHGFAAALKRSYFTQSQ
Sequence of FIPV M^pro (Q98VG9 2904-3205 limits assumed): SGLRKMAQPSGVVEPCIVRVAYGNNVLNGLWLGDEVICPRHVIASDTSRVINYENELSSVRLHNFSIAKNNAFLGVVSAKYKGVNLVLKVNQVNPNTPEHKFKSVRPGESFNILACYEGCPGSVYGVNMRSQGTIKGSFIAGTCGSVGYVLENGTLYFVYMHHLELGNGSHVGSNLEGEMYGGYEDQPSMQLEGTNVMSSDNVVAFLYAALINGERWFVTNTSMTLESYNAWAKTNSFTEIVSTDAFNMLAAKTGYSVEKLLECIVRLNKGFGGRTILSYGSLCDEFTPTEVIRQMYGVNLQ

In the case of “2-Abz-DFHLQ↓GPY^(NO2)R [NPFRET, shorter, truncated consensus substrate proposed in the literature, reference compound]”, the “recognition of substrate by picornaviral and noroviral main proteases” value in assay [1] is “lack of binding”.
For the compound 2-Abz-EALFQ↓GPPKY^(NO2)R [EV71FRET], the Km (commonly the substrate concentration at which the rate is half of its maximum) was 1640 µM on EV71 M^pro (setting [6]); 1640 ± 261 µM on EV71 M^pro (setting [7]); 480 ± 80 µM on HRV M^pro; 622 µM on NV M^pro (setting [8]); 620 ± 153 µM at NV M^pro (setting [7]); 1140 µM and 1110 µM on Polio M^pro. In addition, the vmax on EV71 M^pro (setting [6]) amounted to 1.029 ± 0.13 µM/s; on HRV M^pro it was 0.7709 ± 0.08 µM/s; on NV M^pro (setting [8]) it was 1.410 ± 0.16 µM/s; at Polio M^pro, 1.366 ± 0.30 µM/s. Further, the “catalytic efficiency (kcat/KM)” value on EV71 M^pro (Bis-Tris pH 7.6, 37 °C) came to 1300 ± 138 M⁻¹ s⁻¹; at HRV M^pro it was 3200 ± 405 M⁻¹ s⁻¹; on NV M^pro (Bis-Tris pH 7.6, 37 °C), 4500 ± 515 M⁻¹ s⁻¹; on Polio M^pro, 2700 ± 315 M⁻¹ s⁻¹. In addition, the “recognition of substrate by picornaviral and noroviral main proteases” value in assay [1] is on record as “somewhat more promiscuous”.
Take 2-Abz-EFQLQ↓GKMYDY^(NO2)R [NVFRET]: the Km on EV71 M^pro (setting [6]) is 1100 µM; at EV71 M^pro (setting [7]) it was 1100 ± 201 µM; at NV M^pro (setting [7]), 613 ± 188 µM. Moreover, the vmax at EV71 M^pro (setting [6]) stood at 1.914 ± 0.29 µM/s; at NV M^pro (setting [8]) it was 0.4163 ± 0.08 µM/s; on Polio M^pro, 4.136 ± 1.36 µM/s. Further, the “catalytic efficiency (kcat/KM)” value at EV71 M^pro (Bis-Tris pH 7.6, 37 °C) came out at 3400 ± 455 M⁻¹ s⁻¹; on NV M^pro (Bis-Tris pH 7.6, 37 °C), 1300 ± 167 M⁻¹ s⁻¹.
As for 2-Abz-ETLFQ↓GPVY^(NO2)R [HRFRET], at HRV M^pro, the vmax came out at 0.5348 ± 0.08 µM/s, the Km worked out at 340 ± 49 µM and the “catalytic efficiency (kcat/KM)” value is 3000 ± 285 M⁻¹ s⁻¹. For the same compound, the “recognition of substrate by picornaviral and noroviral main proteases” value in assay [1] is “only specific to rhinovirus M^pro”.
In the assay on EqCoV M^pro, “2-Abz-NSTLQ↓SGY^(NO2)R [PEDV 2, truncated version of the PEDV FRET substrate]” gave a vmax of 0.4516 µM/s. Moreover, in the assay with PEDV M^pro, the k cat is 2.6 ± 0.2 s⁻¹, the “K M” value worked out at 63 ± 11 µM, the Km came out at 63 ± 11 µM and the vmax is 0.266 ± 0.02 µM/s.
For the compound “2-Abz-STLAAGY^(NO2)R [(−) FRET, negative control FRET peptide that lacks the QS cleavage site]”, the “cleavage by SARS-CoV-2 M^pro (LCMS analysis of cleavage products)” value on SARS-CoV-2 M^pro [2] was “no cleavage”. For the same compound, the “recognition of substrate by coronavirus M^pros” value in assay [3] is reported as “None of the investigated M^pros recognize”.
Turning to 2-Abz-VVTLQ↓SGY^(NO2)R [Blanchard-VV], the Michaelis-Menten constant (Km) on SARS-CoV-2 M^pro [4] came out at 64 ± 10 µM; at FIPV M^pro it was 85 ± 15 µM; in the assay on EqCoV M^pro it was 371 ± 70 µM; with PEDV M^pro, 85 ± 10 µM. Besides, the vmax at SARS-CoV-2 M^pro [4] stood at 0.2927 ± 0.02 µM/s; at FIPV M^pro, 0.3231 ± 0.04 µM/s; in the assay on PEDV M^pro, 0.360 ± 0.04 µM/s.
With 2-Abz-YNSTLQ↓SGY^(NO2)R [PEDV 1], the vmax in the assay on EqCoV M^pro was 0.4075 µM/s. In the assay on PEDV M^pro, the k cat was found to be 3.3 ± 0.3 s⁻¹, the “K M” value was found to be 192 ± 26 µM, the Km was determined as 192 ± 26 µM and the vmax came out at 0.330 ± 0.02 µM/s.
As for `C[S+](C)[O-]` [DMSO, dimethyl sulfoxide], in assay [5], the “decrease of enzyme activity” value is listed as 42–60%.
For the compound Tween-20, the “effect on catalytic activity” value in assay [5] is “do not significantly reduce catalytic activity”.

Source of the values: paper PMC11537199 (RSC Advances, 2024).
